Assay results as given in article PMC13544220, “Glycemic and bodyweight effects of GIPR coding variation reflect differences in surface expression and intrinsic functional impairment” (Science Advances, 2026).
Positions count from the first letter of the chain named. Peptide text beside a SMILES is read from it. * marks the point of attachment. Cbz = O=C(OCc1ccccc1)*; OtBu = CC(C)(C)O*

What was measured:
[1] = tested on: wild-type and variant SNAP-GIPR in INS-1 cells; assay: Bafilomycin A1 effect on surface SNAP-GIPR in INS-1 cells; format: cell-based, human; details: inhibition of constitutive GIPR down-regulation; fig. S2A
Protocol: Twenty-four hours before the experiment, AD293 or INS-1 cells were reverse transfected with GIPR variant or wild-type plasmids using Lipofectamine 2000 in 96-well, clear-bottom, black microplates precoated with poly-D-lysine. All variants were tested in parallel on each occasion to control for transfection efficiency differences between experiments.

[2] = target: T1, wild-type and variant SNAP-GIPR (Homo sapiens, UniProt P48546, E354Q); assay: cAMP concentration response (HTRF) in AD293 cells, SNAP-GIPR; format: cell-based; details: AD293, SNAP-GIPR E354Q, 0.1% BSA
T1 construct: the endogenous GIPR signal peptide was removed and replaced with a SNAPf tag; host or cells: AD293 (adherent HEK293), transient transfection
T1 sequence (P48546 22-466 E354Q): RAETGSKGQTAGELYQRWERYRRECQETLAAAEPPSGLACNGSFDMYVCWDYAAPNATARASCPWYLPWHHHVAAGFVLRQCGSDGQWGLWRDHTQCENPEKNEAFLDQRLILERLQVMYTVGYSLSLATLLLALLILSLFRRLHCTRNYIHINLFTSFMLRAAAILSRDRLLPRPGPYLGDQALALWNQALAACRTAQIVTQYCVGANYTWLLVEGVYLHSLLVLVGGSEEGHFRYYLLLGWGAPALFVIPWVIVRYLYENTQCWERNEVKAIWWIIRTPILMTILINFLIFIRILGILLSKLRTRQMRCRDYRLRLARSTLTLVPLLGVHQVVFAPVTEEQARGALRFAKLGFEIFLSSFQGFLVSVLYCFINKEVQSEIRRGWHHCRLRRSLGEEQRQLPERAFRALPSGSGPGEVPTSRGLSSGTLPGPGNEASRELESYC
Protocol: (Imperial College London): 24 hours before the experiment, AD293 cells were reverse transfected with the GIPR variant or wild-type plasmids using Lipofectamine 2000 in 12-well plates. All variants were tested in parallel on each occasion to control for transfection efficiency differences between experiments. […] Data were fit using a three-parameter logistic model using GraphPad Prism 10.

[3] = target: T2, hGIPR WT (Homo sapiens, UniProt P48546); assay: cAMP accumulation in HEK293 cells, untagged GIPR (Eli Lilly); format: cell-based; details: HEK-293, untagged, 0.1% casein, (SEM, n), n=4
T2 construct: expressed in transfected cells; host or cells: HEK293, transient
T2 sequence (P48546 22-466): T1 sequence (P48546 22-466 E354Q) with Q333E

[4] = tested on: membranes from untransfected HEK293 cells; assay: [125I]GIP(1-42)OH radioligand binding, untransfected control; parameters: species or system human; details: either assay condition
Protocol: Radioligand binding to the GIPR variant receptors was performed using the assay procedure described in ([59]) with some slight modification in the buffer. […] A3782), and 25 mM Hepes (Gibco, catalog no. […] The assay was incubated overnight at 25°C and then centrifuged at 1000 rpm (Beckman Coulter, Avanti J-15R).

[5] = tested on: wild-type and variant SNAP-GIPR in INS-1 cells; assay: Proteasomal inhibition, total SNAP-GIPR in INS-1 cells; format: cell-based, human; details: for total SNAP-GIPR level with PSI: 100 μM, 4 h, INS-1, scaled to experimental average without PSI; for total SNAP-GIPR level after proteasomal inhibition: INS-1, 100 μM, 4 hours
Protocol: INS-1 cells were reverse transfected with the GIPR variant or wild-type plasmids in 96-well, clear-bottom, black microplates precoated with poly-D-lysine. All variants were tested in parallel on each occasion to control for transfection efficiency differences between experiments. Twelve hours posttransfection, the cells were treated with either vehicle or Proteasome Inhibitor I (Merck) for 4 hours. Following this, the cells were labeled with the cell-permeable SNAP-tag probe BG-OG ([29]) for 10 min at 37°C to label total SNAP. Cells were then imaged as in the “Assessment of surface GIPR expression by SNAP-tag labeling in cell lines” section to establish total GIPR labeling (surface and intracellular). Images were analyzed as in the “Assessment of surface GIPR expression by SNAP-tag labeling in cell lines” section.

CO/C1=C\C(C)=C\[C@@H](C)[C@@H](O)[C@@H](C)C/C(C)=C/C=C/[C@H](OC)[C@@H]([C@@H](C)[C@@H](O)[C@H](C)[C@@]2(O)C[C@@H](O)[C@H](C)[C@@H](C(C)C)O2)OC1=O [bafilomycin A1]
rescue of surface expression of GIPR variants [1]: did not lead to disproportionate “rescue”

CC[C@H](C)[C@H](NC(=O)[C@H](CC(C)C)NC(=O)[C@H](Cc1c[nH]c2ccccc12)NC(=O)[C@H](CCC(N)=O)NC(=O)[C@@H](NC(=O)[C@H](Cc1ccccc1)NC(=O)[C@H](C)NC(=O)[C@H](CCCCNC(=O)COCCOCCNC(=O)COCCOCCNC(=O)CC[C@H](NC(=O)CCCCCCCCCCCCCCCCCCC(=O)O)C(=O)O)NC(=O)[C@H](CCC(N)=O)NC(=O)[C@H](C)NC(=O)[C@@H](NC(=O)[C@H](CCCCN)NC(=O)[C@H](CC(=O)O)NC(=O)[C@H](CC(C)C)NC(=O)C(C)(C)NC(=O)[C@@H](NC(=O)[C@H](CO)NC(=O)[C@H](Cc1ccc(O)cc1)NC(=O)[C@H](CC(=O)O)NC(=O)[C@H](CO)NC(=O)[C@@H](NC(=O)[C@H](Cc1ccccc1)NC(=O)[C@@H](NC(=O)CNC(=O)[C@H](CCC(=O)O)NC(=O)C(C)(C)NC(=O)[C@@H](N)Cc1ccc(O)cc1)[C@@H](C)O)[C@@H](C)O)[C@@H](C)CC)[C@@H](C)CC)C(C)C)C(=O)N[C@@H](C)C(=O)NCC(=O)NCC(=O)N1CCC[C@H]1C(=O)N[C@@H](CO)C(=O)N[C@@H](CO)C(=O)NCC(=O)N[C@@H](C)C(=O)N1CCC[C@H]1C(=O)N1CCC[C@H]1C(=O)N1CCC[C@H]1C(=O)N[C@@H](CO)C(N)=O [tirzepatide]
cAMP signaling (∆LogEmax/EC50) [2]: increased cAMP signaling
Emax [3]: 90.6%

[125I]GIP(1-42)OH: radioligand [125I]GIP(1-42)OH (Revvity)
specific binding, untransfected HEK293 membranes [4]: no significant specific binding detected

CC[C@H](C)[C@H](NC(=O)OCc1ccccc1)C(=O)N[C@@H](CCC(=O)OC(C)(C)C)C(=O)N[C@@H](C)C(=O)N[C@H](C=O)CC(C)C [PSI] (Cbz-IE(OtBu)AL-aldehyde)
total SNAP-GIPR level with PSI ([5]; E288G, replicate 1): 0.3892
total SNAP-GIPR level with PSI ([5]; E288G, replicate 2): 3.417
total SNAP-GIPR level with PSI ([5]; E288G, replicate 3): 2.001
total SNAP-GIPR level with PSI ([5]; E288G, replicate 4): 0.9026
total SNAP-GIPR level with PSI ([5]; E288G, replicate 5): 1.217
total SNAP-GIPR level with PSI ([5]; E354Q, replicate 1): 0.9055
total SNAP-GIPR level with PSI ([5]; E354Q, replicate 2): 0.737
total SNAP-GIPR level with PSI ([5]; E354Q, replicate 3): 1.364
total SNAP-GIPR level with PSI ([5]; E354Q, replicate 4): 0.8268
total SNAP-GIPR level with PSI ([5]; E354Q, replicate 5): 0.8316
total SNAP-GIPR level after proteasomal inhibition ([5]; E288G): significant increase in E288G levels
total SNAP-GIPR level after proteasomal inhibition ([5]; R190Q and R101H): numerically similar trends
total SNAP-GIPR level after proteasomal inhibition ([5]; wild-type and E354Q): unaffected by proteasomal inhibition
total SNAP-GIPR level with PSI ([5]; R101H, replicate 1): 0.131
total SNAP-GIPR level with PSI ([5]; R101H, replicate 2): 0.3704
total SNAP-GIPR level with PSI ([5]; R101H, replicate 3): 0.7801
total SNAP-GIPR level with PSI ([5]; R101H, replicate 4): 0.651
total SNAP-GIPR level with PSI ([5]; R101H, replicate 5): 0.8591
total SNAP-GIPR level with PSI ([5]; R190Q, replicate 1): 0.3291
total SNAP-GIPR level with PSI ([5]; R190Q, replicate 2): 0.5524
total SNAP-GIPR level with PSI ([5]; R190Q, replicate 3): 1.18
total SNAP-GIPR level with PSI ([5]; R190Q, replicate 4): 0.5932
total SNAP-GIPR level with PSI ([5]; R190Q, replicate 5): 0.77
total SNAP-GIPR level with PSI ([5]; WT, replicate 1): 4.2848
total SNAP-GIPR level with PSI ([5]; WT, replicate 2): 3.795
total SNAP-GIPR level with PSI ([5]; WT, replicate 3): 3.454
total SNAP-GIPR level with PSI ([5]; WT, replicate 4): 1.746
total SNAP-GIPR level with PSI ([5]; WT, replicate 5): 2.287
